Measurements published in PMC12615753, “Glutathione as a taste modulator: molecular mechanisms of interaction with umami and sweet taste receptors” (Food Chemistry: Molecular Sciences, 2025).
One block for each compound: values may come before it.

Experiments:
[1] = biological target: T1, hTAS1R2/hTAS1R3(r1–575) (UniProt Q8TE23+Q923K1, A645S/A698V/A702T/A793V/A807V/C582S/C678S/E725V/E827G/F612A/F622V/F805L/I617V/I740A/I779T/I803L/K818R/L735F/L823M/L825Q/M644L/M706V/M729T/N675D/Q717H/Q757R/Q795R/Q831P/R632Q/R634S/R762C/S576L/S610P/S635P/S637R/S679G/T588V/T694M/T813A/V584A/V718M/V723A/V738A/V744T/V821L/W599R/W676R/W824R/Y598H/Y680C/Y794L); assay: Calcium assay, chimeric TAS1R3 co-expressed with hTAS1R2; type: cell-based, human, rat
T1 construct: hTAS1R3(r1–575) consists of the N-terminal extracellular domain of rTAS1R3 and the TMD of hTAS1R3; expressed in transfected cells
T1 sequence (Q8TE23 20-839, stated change not applied): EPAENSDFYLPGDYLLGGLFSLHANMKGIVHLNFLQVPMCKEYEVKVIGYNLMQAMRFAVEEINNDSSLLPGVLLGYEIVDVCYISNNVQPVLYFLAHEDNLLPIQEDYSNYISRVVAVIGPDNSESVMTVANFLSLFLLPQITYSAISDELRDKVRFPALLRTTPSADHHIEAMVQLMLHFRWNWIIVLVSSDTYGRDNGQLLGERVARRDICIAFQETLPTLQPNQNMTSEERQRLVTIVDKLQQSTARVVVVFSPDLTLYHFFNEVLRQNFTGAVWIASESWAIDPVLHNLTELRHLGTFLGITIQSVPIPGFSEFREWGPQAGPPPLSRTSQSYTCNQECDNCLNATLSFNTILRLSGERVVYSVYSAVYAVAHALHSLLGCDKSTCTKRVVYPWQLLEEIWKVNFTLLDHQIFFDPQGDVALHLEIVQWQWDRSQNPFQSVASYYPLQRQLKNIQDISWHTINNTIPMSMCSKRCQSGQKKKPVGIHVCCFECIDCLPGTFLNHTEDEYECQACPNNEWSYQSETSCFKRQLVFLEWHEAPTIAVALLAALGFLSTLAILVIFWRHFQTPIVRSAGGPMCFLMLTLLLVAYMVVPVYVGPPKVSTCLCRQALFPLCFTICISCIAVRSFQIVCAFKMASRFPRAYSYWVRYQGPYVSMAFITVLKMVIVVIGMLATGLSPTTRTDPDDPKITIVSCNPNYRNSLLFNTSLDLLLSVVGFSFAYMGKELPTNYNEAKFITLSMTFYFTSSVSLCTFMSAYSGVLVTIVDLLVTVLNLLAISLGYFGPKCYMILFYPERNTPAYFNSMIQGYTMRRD
T1 sequence (Q923K1 other isoform, or with tags, fused parts or gaps with the stated changes): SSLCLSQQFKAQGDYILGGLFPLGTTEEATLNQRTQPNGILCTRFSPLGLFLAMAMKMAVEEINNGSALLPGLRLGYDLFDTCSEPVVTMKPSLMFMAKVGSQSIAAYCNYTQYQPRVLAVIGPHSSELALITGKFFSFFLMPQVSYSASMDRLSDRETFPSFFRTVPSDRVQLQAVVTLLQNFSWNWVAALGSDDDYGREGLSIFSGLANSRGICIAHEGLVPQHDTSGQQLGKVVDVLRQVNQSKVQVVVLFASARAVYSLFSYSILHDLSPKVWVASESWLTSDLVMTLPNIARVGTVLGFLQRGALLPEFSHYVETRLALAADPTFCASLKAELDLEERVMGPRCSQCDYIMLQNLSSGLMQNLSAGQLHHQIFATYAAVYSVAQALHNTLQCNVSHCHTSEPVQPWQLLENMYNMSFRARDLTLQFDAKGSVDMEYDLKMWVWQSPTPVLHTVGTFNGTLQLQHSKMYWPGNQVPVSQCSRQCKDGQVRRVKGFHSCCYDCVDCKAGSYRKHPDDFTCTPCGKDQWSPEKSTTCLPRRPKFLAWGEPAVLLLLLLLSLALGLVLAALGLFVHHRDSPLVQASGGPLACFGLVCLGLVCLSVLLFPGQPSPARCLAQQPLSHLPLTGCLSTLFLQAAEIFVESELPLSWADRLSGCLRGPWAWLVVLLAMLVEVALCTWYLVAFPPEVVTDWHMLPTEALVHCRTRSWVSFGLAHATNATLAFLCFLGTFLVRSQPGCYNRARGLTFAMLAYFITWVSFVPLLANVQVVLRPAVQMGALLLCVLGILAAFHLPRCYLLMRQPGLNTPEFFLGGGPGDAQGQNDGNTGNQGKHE
Excerpt: (§1) Chimeric Gα proteins, such as Gα16Gust44, Gα16Gi3 or Gα15i2, are widely used in the functional expression of TAS1R receptors ([Backes et al., 2015]; [Suess et al., 2015]; [Toda et al., 2021], [Toda et al., 2013], [Toda et al., 2018]; [Zhang et al., 2008]). Chimeric Gα15i2 (([Toda et al., 2013]), Supplementary data) was generated by replacing the last five residues of the C-terminal tail of rat Gα15i2 (EINLL) (UniProt number G3V6N8; https://www.uniprot.org/uniprot/) with the counterpart sequence from human GNAI2 (DCGLF) (UniProt number P04899-1) and cloning into the pcDNA3.1/Hygro vector (Invitrogen, Thermo Fisher Scientific, Illkirch, France) between the HindIII and NotI restriction sites, resulting in the plasmid pcDNA3.1-Gα15i2. Chimeric Gα16Gust44 construct have already been reported ([Raliou et al., 2011]). Briefly, Gα16Gust44 was generated by replacing the C-terminal of Gα16 with the C-terminal 44 residues of gustducin. As previously described, hTAS1R1 was amplified from human fungiform papillae cDNA and cloned and inserted into pcDNA3 (Invitrogen), generating pcDNA3-TAS1R1-WT (wild-type) ([Raliou et al., 2011]). […]

[2] = biological target: T2, hTAS1R1 D192E/rTAS1R3 (UniProt Q7RTX1+Q923K1, D192E); assay: cell-based; set-up: species or system human, rat
T2 construct: The cDNA coding region of rTAS1R3 was synthesized with optimized-codon usage for human expression; expressed in transfected cells; host or cells: HEK293T/17
T2 sequence (Q7RTX1 21-841 D192E): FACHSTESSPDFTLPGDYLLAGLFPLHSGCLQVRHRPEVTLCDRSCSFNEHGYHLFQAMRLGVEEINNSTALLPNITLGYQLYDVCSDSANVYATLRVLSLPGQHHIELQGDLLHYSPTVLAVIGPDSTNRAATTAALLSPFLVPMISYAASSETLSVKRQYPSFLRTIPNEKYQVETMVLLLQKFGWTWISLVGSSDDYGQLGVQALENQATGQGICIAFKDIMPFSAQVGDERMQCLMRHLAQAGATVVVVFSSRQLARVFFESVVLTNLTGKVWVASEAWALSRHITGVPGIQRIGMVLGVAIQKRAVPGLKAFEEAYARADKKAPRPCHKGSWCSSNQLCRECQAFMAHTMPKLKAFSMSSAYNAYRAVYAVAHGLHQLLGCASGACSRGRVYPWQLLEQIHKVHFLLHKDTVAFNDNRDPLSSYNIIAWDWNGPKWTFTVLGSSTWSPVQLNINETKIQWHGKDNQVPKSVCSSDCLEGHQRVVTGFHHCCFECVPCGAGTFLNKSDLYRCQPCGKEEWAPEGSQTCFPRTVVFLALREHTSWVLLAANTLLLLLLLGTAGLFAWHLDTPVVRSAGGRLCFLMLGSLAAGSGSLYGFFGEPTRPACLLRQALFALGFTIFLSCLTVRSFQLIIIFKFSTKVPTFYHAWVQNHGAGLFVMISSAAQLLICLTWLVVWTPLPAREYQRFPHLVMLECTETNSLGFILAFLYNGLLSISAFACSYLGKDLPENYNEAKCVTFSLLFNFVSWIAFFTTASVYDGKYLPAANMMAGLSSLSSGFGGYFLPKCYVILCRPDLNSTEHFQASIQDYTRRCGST
T2 sequence (Q923K1 21-858): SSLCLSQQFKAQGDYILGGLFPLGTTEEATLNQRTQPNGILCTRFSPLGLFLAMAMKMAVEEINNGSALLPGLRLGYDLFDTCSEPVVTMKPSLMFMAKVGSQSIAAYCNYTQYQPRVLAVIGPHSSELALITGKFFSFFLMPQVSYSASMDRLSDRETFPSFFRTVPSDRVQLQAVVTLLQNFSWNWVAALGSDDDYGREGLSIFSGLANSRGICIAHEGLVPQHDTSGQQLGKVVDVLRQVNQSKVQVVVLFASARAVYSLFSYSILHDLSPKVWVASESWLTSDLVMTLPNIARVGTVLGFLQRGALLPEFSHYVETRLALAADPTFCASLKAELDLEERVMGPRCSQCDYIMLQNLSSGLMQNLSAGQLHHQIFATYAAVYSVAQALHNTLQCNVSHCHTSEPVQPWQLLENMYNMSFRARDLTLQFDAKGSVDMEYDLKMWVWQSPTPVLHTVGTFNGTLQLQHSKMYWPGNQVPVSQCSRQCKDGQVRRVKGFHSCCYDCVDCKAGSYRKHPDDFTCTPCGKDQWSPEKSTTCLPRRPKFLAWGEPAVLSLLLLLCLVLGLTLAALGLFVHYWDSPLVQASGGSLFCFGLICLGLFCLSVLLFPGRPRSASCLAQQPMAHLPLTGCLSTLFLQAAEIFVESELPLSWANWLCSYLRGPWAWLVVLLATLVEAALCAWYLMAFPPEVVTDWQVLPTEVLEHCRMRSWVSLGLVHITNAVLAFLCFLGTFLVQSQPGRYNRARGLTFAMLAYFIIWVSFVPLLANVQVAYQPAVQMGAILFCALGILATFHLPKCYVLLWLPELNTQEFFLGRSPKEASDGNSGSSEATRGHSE
Excerpt: as §1

[3] = tested on: TAS1R1/TAS1R3; details: ref Broadhead et al., 2011; Servant & Frerot, 2022; cited from earlier work
[4] = biological target: hTAS1R3 (Homo sapiens, UniProt Q7RTX0); details: GSH alone; Fig. 5B
hTAS1R3, sequence (Q7RTX0 21-852): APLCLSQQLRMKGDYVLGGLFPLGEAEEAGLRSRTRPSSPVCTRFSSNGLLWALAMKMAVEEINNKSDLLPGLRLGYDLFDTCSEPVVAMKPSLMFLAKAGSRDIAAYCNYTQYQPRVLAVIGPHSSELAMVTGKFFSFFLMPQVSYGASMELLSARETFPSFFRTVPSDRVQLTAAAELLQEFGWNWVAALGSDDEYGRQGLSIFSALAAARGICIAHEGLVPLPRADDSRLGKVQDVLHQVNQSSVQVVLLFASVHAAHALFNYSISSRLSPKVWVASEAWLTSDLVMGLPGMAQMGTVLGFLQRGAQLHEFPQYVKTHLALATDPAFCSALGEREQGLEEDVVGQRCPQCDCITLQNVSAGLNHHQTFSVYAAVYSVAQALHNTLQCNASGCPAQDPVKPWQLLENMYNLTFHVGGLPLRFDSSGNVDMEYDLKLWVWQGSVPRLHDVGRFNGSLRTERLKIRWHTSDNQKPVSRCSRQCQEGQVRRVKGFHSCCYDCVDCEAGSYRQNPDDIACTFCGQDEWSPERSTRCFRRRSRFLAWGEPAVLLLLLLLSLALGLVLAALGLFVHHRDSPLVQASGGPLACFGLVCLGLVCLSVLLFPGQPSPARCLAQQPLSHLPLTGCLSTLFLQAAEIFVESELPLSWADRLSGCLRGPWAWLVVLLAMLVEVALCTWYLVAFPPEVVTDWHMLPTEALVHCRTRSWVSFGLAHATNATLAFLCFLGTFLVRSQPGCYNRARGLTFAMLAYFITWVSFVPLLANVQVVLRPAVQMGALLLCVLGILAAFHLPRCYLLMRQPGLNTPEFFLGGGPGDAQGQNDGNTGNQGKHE
Protocol: HEK293T/17 cells (ATCC CRL-11268) were seeded into clear bottom black 96-well plates coated with poly-D-lysine at a density of 32500 cells/well in 100 μL of DMEM containing 4.5 g/L glucose and supplemented with penicillin/streptomycin, 2 mM GlutaMAX and 10 % dialyzed fetal bovine serum. The plates were incubated for 24 h at 37 °C and 7.3 % CO2 in a humidified atmosphere. After incubation, using Fugene® 4 K (0.46 μL/well, Promega, Illkirch, France), the cells were transiently transfected with pcDNA3-hTAS1R1-WT (60 ng/well) or TAS1R1 mutants, pcDNA4-rTAS1R3 (60 ng/well), pcDNA3-Gα15i2 (10 ng/well), and pGP-CMV-GCaMP6s (Addgene #40753; 10 ng/well) as a genetically encoded calcium indicator. […] After 20 s of basal fluorescence calcium measurement, the cells were stimulated via automatic injection of a range of compounds in eight wells, and the signal emission was recorded for an additional 70 s, via a FlexStation 3® fluorometric microplate reader (Molecular Devices, San Jose, CA, USA). […] The emitted fluorescence was measured at a wavelength of 510 nm after excitation at 488 nm. […] For each well, the decrease in the raw fluorescence as the relative fluorescence changed was calculated as ΔF/F0. Replicates were averaged for the wells subjected to the same stimuli, the background signal was subtracted, and the fluorescence changes in mock-transfected cells were subtracted. […]

[5] = biological target: T3, hTAS1R1/hTAS1R3(r570–858) (Homo sapiens, UniProt Q7RTX1); assay: Calcium assay, chimeric TAS1R3 co-expressed with hTAS1R1; type: cell-based, rat; details: data not shown
T3 construct: UniProtKB number Q7RTX1–1); expressed in transfected cells; host or cells: HEK293T/17 (inferred from the general method)
T3 sequence (Q7RTX1 21-841): as the sequence (Q7RTX1 21-841 D192E) above, with E172D counted along it
Excerpt: as §1

[6] = biological target: T4, hTAS1R1/hTAS1R3(r1–575) (Homo sapiens, UniProt Q7RTX1); assay: as above; type: cell-based, rat; details: data not shown
T4 construct: UniProtKB number Q7RTX1–1); expressed in transfected cells; host or cells: HEK293T/17 (inferred from the general method)
T4 sequence (Q7RTX1 21-841): as the sequence (Q7RTX1 21-841 D192E) above, with E172D counted along it
Excerpt: as §1

Compound: N[C@@H](CCC(=O)N[C@@H](CS)C(=O)NCC(=O)O)C(=O)O [GSH, γ-L-glutamyl-L-cysteinyl-glycine]
fold decrease in the EC50 value of sucralose ([1]; in the presence of 10 mM GSH): 5.2 fold
EC50 [2]: > 30 mM
EC50 [3]: 11.3 mM
response of transfected cells [4]: did not respond

Compound: N[C@@H](CCC(=O)O)C(=O)O [L-Glu, L-glutamic acid, reference compound]
response of the receptor [5]: did not respond
response of the receptor [6]: did not respond

EC50 ([1]; sucralose alone, Fig. 3B): 485 ± 138 µM
Compound: OC[C@H]1O[C@H](O[C@]2(CCl)O[C@H](CCl)[C@@H](O)[C@@H]2O)[C@H](O)[C@@H](O)[C@H]1Cl [sucralose, reference compound]
